Where a name gives a salt, the structure may show the parent alone. Read-outs that look alike come from different tables or passages of the source.
Key:
Clone V cells [1] = conditions: human, 16 h, 30 µM
[2] = biological target: T1, FGF14:Nav1.6 C-tail complex (Homo sapiens, UniProt Q92915+Q9UQD0); assay: Split-luciferase complementation assay (LCA) in Clone V double stable HEK293 cells; assay type: cell-based; conditions: CC_NCI screening; for Split Luciferase Assay % Lum Set 1 / Split Luciferase Assay %Lum Set 2: LCA luminescence, normalized to on-plate 0.3% DMSO controls (n=16 per plate); for Split Luciferase Assay % Lum Set 1 / Split Luciferase Assay Z-score Set 1: biological replicate Set 1; for Split Luciferase Assay %Lum Set 2 / Split Luciferase Assay Z-score Set 2: biological replicate Set 2; for Split Luciferase Assay Z-score Set 1 / Split Luciferase Assay Z-score Set 2: LCA, normalized to on-plate 0.3% DMSO controls; for Split Luciferase Assay %Lum Avg: average of Set 1 and Set 2, normalized to 0.3% DMSO controls
T1 construct: polymerase chain reaction (PCR) amplification of the FGF14 open reading frame (nt 1–855); C-terminal fragment of Nav1.6 (amino acids 1763–1976) fused with CD4ΔC-tail (amino acids 1–395); expressed in transfected cells
T1 sequence (Q92915 1-252 isoform Q92915-2): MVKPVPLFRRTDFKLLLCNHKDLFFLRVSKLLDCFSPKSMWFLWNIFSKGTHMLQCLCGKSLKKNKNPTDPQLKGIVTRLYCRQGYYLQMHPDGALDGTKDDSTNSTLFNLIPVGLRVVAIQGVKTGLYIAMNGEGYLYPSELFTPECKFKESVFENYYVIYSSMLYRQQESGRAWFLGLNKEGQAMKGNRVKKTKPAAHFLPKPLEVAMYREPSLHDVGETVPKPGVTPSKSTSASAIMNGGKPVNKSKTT
T1 sequence (Q9UQD0 1763-1976 limits assumed): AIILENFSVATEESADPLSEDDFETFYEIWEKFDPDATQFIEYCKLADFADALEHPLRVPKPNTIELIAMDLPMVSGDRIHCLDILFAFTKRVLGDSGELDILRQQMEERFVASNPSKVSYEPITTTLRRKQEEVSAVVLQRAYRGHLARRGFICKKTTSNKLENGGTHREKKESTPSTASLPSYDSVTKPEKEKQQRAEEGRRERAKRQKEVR

Clone V cells [3] = assay: CellTiter Blue (CTB) cell viability counter-screen; conditions: for Toxicity Assay Z-score: CTB cell viability
[4] = biological target: full-length P. pyralis luciferase (Photinus pyralis, UniProt P08659, K549A/L550V/N119G/N50D/S548I); assay type: cell-based; conditions: CC_NCI screening, normalized to on-plate 0.3% DMSO controls; for Luciferase Assay % Lum: full-length luciferase counter-screen luminescence; for Luciferase Assay Z-score: full-length luciferase counter-screen
full-length P. pyralis luciferase, sequence (P08659 whole entry N50D/N119G/S548I/K549A/L550V, looked up): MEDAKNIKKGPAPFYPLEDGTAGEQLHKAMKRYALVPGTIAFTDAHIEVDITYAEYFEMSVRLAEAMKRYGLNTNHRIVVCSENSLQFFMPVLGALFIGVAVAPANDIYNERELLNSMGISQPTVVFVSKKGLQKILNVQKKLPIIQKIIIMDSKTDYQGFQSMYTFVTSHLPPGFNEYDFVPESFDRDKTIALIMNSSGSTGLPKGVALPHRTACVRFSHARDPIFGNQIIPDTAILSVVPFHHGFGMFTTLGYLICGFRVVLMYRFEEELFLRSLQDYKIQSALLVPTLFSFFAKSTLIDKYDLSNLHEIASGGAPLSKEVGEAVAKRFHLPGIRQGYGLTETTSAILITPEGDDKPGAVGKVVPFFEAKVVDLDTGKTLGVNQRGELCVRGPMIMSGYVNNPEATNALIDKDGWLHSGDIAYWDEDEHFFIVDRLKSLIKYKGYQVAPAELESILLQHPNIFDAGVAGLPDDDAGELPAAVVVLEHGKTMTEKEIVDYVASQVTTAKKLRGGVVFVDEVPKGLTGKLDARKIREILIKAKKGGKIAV

[5] = CC_NCI screening, CTB cell viability fluorescence, normalized to on-plate 0.3% DMSO controls
[6] = CC_NCI screening, normalized to on-plate 0.3% DMSO controls

Row | SMILES | Toxicity Assay Z-score (Clone V cells [1]) | Split Luciferase Assay % Lum Set 1 [2] | Split Luciferase Assay %Lum Set 2 [2] | Split Luciferase Assay Z-score Set 1 [2] | Split Luciferase Assay Z-score Set 2 [2] | Split Luciferase Assay %Lum Avg [2] | Toxicity Assay % Fluor (Clone V cells [3]; [5]) | Luciferase Assay % Lum [4] | Luciferase Assay Z-score [4] | Toxicity Assay % Fluor (Clone V cells [3]) | Toxicity Assay Z-score (Clone V cells [3]; [6])
1 | CC1(C)CCC(c2ccc(Cl)cc2)=C(CN2CCN(c3ccc(C(=O)NS(=O)(=O)c4ccc(N[C@H](CCN5CCOCC5)CSc5ccccc5)c(S(=O)(=O)C(F)(F)F)c4)cc3)CC2)C1 [ABT-263] | -0.99 | 93.82% | 71.78% | -0.50 | -2.30 | 82.80% | 92.92% | 103.24% | 0.42 |  | 
2 | CN(C)CC[C@H](CSc1ccccc1)Nc1ccc(S(=O)(=O)NC(=O)c2ccc(N3CCN(Cc4ccccc4-c4ccc(Cl)cc4)CC3)cc2)cc1[N+](=O)[O-] [ABT-737] | 1.03 | 132.95% | 126.92% | 2.66 | 2.19 | 129.94% | 107.35% | 95.47% | -0.58 |  | 
3 | CNCc1ccc(-c2[nH]c3cc(F)cc4c3c2CCNC4=O)cc1 [AG014699] | -0.48 | 65.55% | 67.62% | -2.78 | -2.63 | 66.59% | 96.59% | 82.53% | -2.24 |  | 
4 | CNC(=O)c1ccccc1Sc1ccc2c(/C=C/c3ccccn3)n[nH]c2c1 [AXITINIB] | -1.18 | 107.95% | 91.55% | 0.64 | -0.69 | 99.75% | 91.58% | 40.56% | -7.61 |  | 
5 | C[C@]12CC[C@H](O)CC1=CC[C@@H]1[C@@H]2CC[C@]2(C)C(c3cccnc3)=CC[C@@H]12 [Abiraterone] | -2.19 | 115.56% | 148.76% | 1.26 | 3.97 | 132.16% | 84.37% | 85.19% | -1.90 |  | 
6 | Oc1ncnc2[nH]ncc12 [Allopurinol] | -1.65 | 106.86% | 95.71% | 0.55 | -0.35 | 101.29% | 88.22% | 96.95% | -0.39 |  | 
7 | CC[C@@H]1C(=O)N(C)c2cnc(Nc3ccc(C(=O)NC4CCN(C)CC4)cc3OC)nc2N1C1CCCC1 [BI 2536, reference compound] | -0.11 |  |  |  |  |  |  |  |  | 99.22% | 
8 | C#Cc1cccc(Nc2ncnc3cc(OCCOC)c(OCCOC)cc23)c1 [Erlotinib hydrochloride] | -0.92 | 118.82% | 73.86% | 1.52 | -2.13 | 96.34% | 93.40% | 82.34% | -2.26 |  | 
9 | C=CC[C@@H]1/C=C(\C)C[C@H](C)C[C@H](OC)[C@H]2O[C@@](O)(C(=O)C(=O)N3CCCC[C@H]3C(=O)O[C@H](/C(C)=C/[C@@H]3CC[C@@H](O)[C@H](OC)C3)[C@H](C)[C@@H](O)CC1=O)[C@H](C)C[C@@H]2OC [FK-506] | 1.82 | 80.77% | 91.55% | -1.55 | -0.69 | 86.16% | 113.03% | 77.49% | -2.88 |  | 
10 | CN1CCN(CCOc2cc(OC3CCOCC3)c3c(Nc4c(Cl)ccc5c4OCO5)ncnc3c2)CC1 [SARACATINIB] |  | 85.12% | 98.83% | -1.20 | -0.10 | 91.97% | 108.09% | 107.97% | 1.02 |  | 1.13
11 | CN(N=O)C(=O)N[C@@H](C=O)[C@@H](O)[C@H](O)[C@H](O)CO [Streptozocin] |  | 130.78% | 124.84% | 2.49 | 2.02 | 127.81% | 96.94% | 99.54% | -0.06 |  | -0.43
12 | Cn1nnc2c(C(N)=O)ncn2c1=O [Temozolomide] |  | 106.86% | 109.23% | 0.55 | 0.75 | 108.05% | 84.35% | 99.34% | -0.09 |  | -2.19
13 | COc1cc2c(Nc3ccc(Br)cc3F)ncnc2cc1OCC1CCN(C)CC1 [Vandetanib] |  | 89.47% | 115.47% | -0.85 | 1.26 | 102.47% | 97.46% | 80.83% | -2.46 |  | -0.36
14 | CCCS(=O)(=O)Nc1ccc(F)c(C(=O)c2c[nH]c3ncc(-c4ccc(Cl)cc4)cc23)c1F [Vemurafenib] |  | 104.69% | 105.07% | 0.38 | 0.41 | 104.88% | 86.56% | 93.28% | -0.86 |  | -1.88
15 | O=C(CCCCCCC(=O)Nc1ccccc1)NO [Vorinostat] |  | 88.38% | 88.43% | -0.94 | -0.94 | 88.40% | 101.32% | 97.95% | -0.26 |  | 0.19
16 | O=P(O)(O)C(O)(Cn1ccnc1)P(=O)(O)O [Zoledronic acid] |  | 100.34% | 119.64% | 0.03 | 1.60 | 109.99% | 89.11% | 94.25% | -0.74 |  | -1.52
